These results are taken from patent US6403347B1, “HIV integrase inhibitors” (Merck & Co., Inc., priority 1999, dated 2002).

The structures appear in SMILES notation. pIC50: −log10 of the molar value. Where two headings read alike, the source gives them in different places.

In one assay the target is HIV integrase (Human immunodeficiency virus type 1 group M subtype B, UniProt P12497). The assay is described as follows: Strand transfer assay for HIV integrase (microtiter assay, ligation of processed donor DNA to nicked host DNA).
Another assay addresses HIV-1 integrase (Human immunodeficiency virus type 1 group M subtype B, UniProt P12497). The assay can be described thus: HIV integrase substrate cleavage (trimming of the 3′ end of HIV long terminal repeat terminus).

Description for HIV-1 integrase: HIV Integrase Substrate Cleavage
An assay for trimming of the 3′ and of HIV long terminal repeat terminus by HIV-1 integrase was conducted according to LaFemina, R. L. et al., J. Virol 10, 5624 (1991), herein incorporated by reference for these purposes. To assay inhibition of HIV integrase substrate cleavage, the reaction was conducted with inhibitor having various concentrations in the range of 0.75 to 100 μM.

For orientation: pIC50 means the negative decadic logarithm of the IC50, by convention in mol/L. With `CC1Oc2cc3c(-c4c(O)cc(O)c5c(O)c6c(cc45)OC(C)C(C)C6=O)c(O)cc(O)c3c(O)c2C(=O)C1C` (single isomer, unassigned) [Compound A], the pIC50 at HIV integrase was 4.92; on HIV-1 integrase, 5.70.
Regarding `CC1Oc2cc3c(-c4c(O)cc(O)c5c(O)c6c(cc45)OC(C)C(C)C6=O)c(O)cc(O)c3c(O)c2C(=O)C1C` (single isomer, unassigned) [Compound B], the negative logarithm of the IC50 (pIC50) at HIV integrase (inhibition of strand transfer by HIV integrase, concentrations 0.75 to 100 μM) is 4.92; at HIV-1 integrase (inhibition of HIV integrase substrate cleavage, inhibitor concentrations 0.75 to 100 μM), 5.70.
For `CC1Oc2cc3c(-c4c(O)cc(O)c5c(O)c6c(cc45)OC(C)C(C)C6=O)c(O)cc(O)c3c(O)c2OC(=O)C1C` (centres unmarked) [Compound C], the figures for the negative logarithm of the IC50 (pIC50) at HIV integrase and on HIV-1 integrase were 5.05 and 5.52, respectively.
For `Cc1oc2cc3c(-c4c(O)cc(O)c5c(O)c6c(cc45)OC(C)C(C)C6=O)c(O)cc(O)c3c(O)c2c(=O)c1C` (centres unmarked) [Compound D], the values for the negative-log IC50 (pIC50) at HIV integrase and at HIV-1 integrase were 5.40 and 6.00, respectively.
At HIV-1 integrase, `COc1cc(O)c2c(OC)c3c(cc2c1-c1c(OC)cc(OC)c2c(OC)c4c(cc12)OC(C)C(C)C4=O)OC(C)C(C)C3=O` (centres unmarked) [Compound F] had a pIC50 of 4.40.
In turn, `COc1cc(OC)c2c(OC)c3c(cc2c1-c1c(OC)cc(OC)c2c(OC)c4c(cc12)OC(C)C(C)C4=O)OC(C)C(C)C3=O` (centres unmarked) [Compound G] showed a negative-log IC50 (pIC50) at HIV-1 integrase of 4.22.
The same measure, in the same setting: for `CC(=O)Oc1cc(OC(C)=O)c2c(OC(C)=O)c3c(cc2c1-c1c(OC(C)=O)cc(OC(C)=O)c2c(OC(C)=O)c4c(cc12)OC(C)C(C)C4=O)OC(C)C(C)C3=O` (centres unmarked) [E] the value was 4.30.
